Assay results published in ChEMBL document CHEMBL4825722, “Discovery of Potent Selective Nonzinc Binding Autotaxin Inhibitor BIO-32546” (ACS Med Chem Lett, 2021).
≈ marks a conversion by molar mass, not a printed value.

Key:
[1] = target: T1, hERG (KCNH2) (Homo sapiens, UniProt Q12809); assay: Inhibition of human ERG at 1 uM by automated patch-clamp assay relative to control
[2] = Half life in rat at 1.0 mg/kg, iv; format: ADME, organism-based; settings: in vivo
[3] = Total brain to plasma concentration ratio in rat at 10 mg/kg, po measured after 4 hrs; format: ADME, organism-based; settings: brain and plasma, read-out: BPR
[4] = Volume of distribution at steady state in C57BL/6 mouse plasma at 2.32 mg/kg; format: ADME, organism-based; settings: read-out: Vdss
[5] = Apparent permeability across apical to basolateral side in human Caco-2 cells incubated for 120 mins by lucifer yellow based LC-MS/MS analysis
[6] = Tmax in cynomolgus monkey at 1.0 mg/kg, po; format: ADME, organism-based, Macaca fascicularis; settings: in vivo
[7] = Oral bioavailability in C57BL/6 mouse at 10 mg/kg; format: ADME, organism-based; settings: in vivo
[8] = Solubility of the compound at pH 7.0 by shake flask method; settings: buffer
[9] = Half life in C57BL/6 mouse plasma at 2.32 mg/kg; format: ADME, organism-based
[10] = Unbound Cmax in C57BL/6 mouse brain at 10 mg/kg, po; format: ADME, organism-based; settings: in vivo
[11] = Cmax in cynomolgus monkey at 1.0 mg/kg, po; format: ADME, organism-based, Macaca fascicularis; parameters: route oral, dose 1 mg/kg; settings: in vivo
[12] = Clearance in dog at 0.2 mg/kg, iv; format: ADME, organism-based, Canis lupus familiaris; settings: in vivo
[13] = target: Autotaxin (Homo sapiens, UniProt Q13822); assay: Inhibition of human ATX assessed as reduction in LPA formation using FS-3 as substrate preincubated for 30 mins followed by substrate addition and measured after 2 hrs by FRET assay
[14] = Tmax in rat at 10 mg/kg, po; format: ADME, organism-based; settings: in vivo
[15] = Tmax in dog at 1.0 mg/kg, po; format: ADME, organism-based, Canis lupus familiaris; settings: in vivo
[16] = Clearance in rat at 1.0 mg/kg, iv; format: ADME, organism-based; settings: in vivo, time <=24 hrs
[17] = AUC (0 to 24 hrs) in C57BL/6 mouse brain at 10 mg/kg, po; format: ADME, organism-based; parameters: time < 24 hr, route oral, dose 10 mg/kg
[18] = Tmax in C57BL/6 mouse plasma at 10 mg/kg, po; format: ADME, organism-based
[19] = AUC (0 to 24 hrs) in C57BL/6 mouse plasma at 2.32 mg/kg; format: ADME, organism-based; parameters: time < 24 hr, dose 2.32 mg/kg
[20] = Oral bioavailability in dog at 1.0 mg/kg; format: ADME, organism-based, Canis lupus familiaris; settings: in vivo
[21] = Protein binding in rat plasma assessed as unbound fraction; format: ADME, cell-free
[22] = target: T2, Cytochrome P450 1A2 (Homo sapiens, UniProt P05177); assay: Inhibition of CYP1A2 in human liver microsomes incubated for 15 mins in presence of NADPH by LC-MS/MS analysis; format: ADME
T2 sequence (P05177 whole entry): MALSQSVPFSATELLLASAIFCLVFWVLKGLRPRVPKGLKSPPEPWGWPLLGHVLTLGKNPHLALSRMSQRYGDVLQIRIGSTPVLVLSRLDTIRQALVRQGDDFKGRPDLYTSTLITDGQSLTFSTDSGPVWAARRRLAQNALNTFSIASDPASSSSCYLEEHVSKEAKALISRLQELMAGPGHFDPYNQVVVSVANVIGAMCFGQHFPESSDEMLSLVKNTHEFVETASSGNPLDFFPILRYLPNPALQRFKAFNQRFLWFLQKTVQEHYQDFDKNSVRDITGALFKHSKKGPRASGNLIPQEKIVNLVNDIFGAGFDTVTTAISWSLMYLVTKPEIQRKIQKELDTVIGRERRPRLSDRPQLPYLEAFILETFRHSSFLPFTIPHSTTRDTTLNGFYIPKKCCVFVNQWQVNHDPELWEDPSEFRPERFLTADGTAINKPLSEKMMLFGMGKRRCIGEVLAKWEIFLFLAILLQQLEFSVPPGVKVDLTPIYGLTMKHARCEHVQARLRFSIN

[23] = Drug concentration in Sprague-Dawley rat at 3 mg/kg, po after 6 hrs by LC-MS/MS analysis; format: ADME, organism-based; settings: in vivo, read-out: Drug uptake
[24] = Drug concentration in Sprague-Dawley rat at 10 mg/kg, po after 6 hrs by LC-MS/MS analysis; format: ADME, organism-based; settings: in vivo, read-out: Drug uptake
[25] = Half life in cynomolgus monkey at 0.2 mg/kg, iv; format: ADME, organism-based, Macaca fascicularis; settings: in vivo
[26] = target: Cytochrome P450 2C19 (Homo sapiens, UniProt P33261); assay: Inhibition of CYP2C19 in human liver microsomes incubated for 30 mins in presence of NADPH by LC-MS/MS analysis; format: ADME
[27] = AUC (0 to 24 hrs) in rat at 10 mg/kg, po; format: ADME, organism-based; parameters: time < 24 hr, route oral, dose 10 mg/kg; settings: in vivo
[28] = Volume of distribution at steady state in cynomolgus monkey at 0.2 mg/kg, iv; format: ADME, organism-based, Macaca fascicularis; settings: in vivo, read-out: Vdss
[29] = target: Sphingosine 1-phosphate receptor 5 (Homo sapiens, UniProt Q9H228); assay: Inhibition of S1P5 (unknown origin)
[30] = Cmax in rat at 10 mg/kg, po; format: ADME, organism-based; parameters: route oral, dose 10 mg/kg; settings: in vivo
[31] = Protein binding in C57BL/6 mouse plasma assessed as unbound fraction; format: ADME, cell-free
[32] = target: Voltage-gated inwardly rectifying potassium channel KCNH2 (Homo sapiens, UniProt Q12809); assay: Inhibition of human ERG by automated patch-clamp assay
[33] = Volume of distribution at steady state in dog at 0.2 mg/kg, iv; format: ADME, organism-based, Canis lupus familiaris; settings: in vivo, read-out: Vdss
[34] = AUC (0 to 24 hrs) in cynomolgus monkey at 0.2 mg/kg, iv; format: ADME, organism-based, Macaca fascicularis; parameters: time < 24 hr, route intravenous, dose 0.2 mg/kg; settings: in vivo
[35] = Tmax in C57BL/6 mouse brain at 2.32 mg/kg, iv; format: ADME, organism-based
[36] = AUC (0 to 24 hrs) in dog at 0.2 mg/kg, iv; format: ADME, organism-based, Canis lupus familiaris; parameters: time < 24 hr, route intravenous, dose 0.2 mg/kg; settings: in vivo
[37] = tested on: Rattus norvegicus; assay: Effect on Sprague-Dawley rat CFA inflammatory […] model assessed as reduction in 20:4 LPA level at 10 mg/kg, po after 6 hrs by LC-MS/MS analysis; format: functional; parameters: scale not given: the % may be the effect or the level left
[38] = target: T1, hERG (KCNH2); assay: Inhibition of human ERG at 10 uM by automated patch-clamp assay relative to control
[39] = AUC (0 to 24 hrs) in C57BL/6 mouse plasma at 10 mg/kg, po; format: ADME, organism-based; parameters: time < 24 hr, route oral, dose 10 mg/kg
[40] = target: T3, Lysophosphatidic acid receptor 3 (Homo sapiens, UniProt Q9UBY5); assay: Inhibition of LPA3 (unknown origin)
T3 sequence (Q9UBY5 whole entry): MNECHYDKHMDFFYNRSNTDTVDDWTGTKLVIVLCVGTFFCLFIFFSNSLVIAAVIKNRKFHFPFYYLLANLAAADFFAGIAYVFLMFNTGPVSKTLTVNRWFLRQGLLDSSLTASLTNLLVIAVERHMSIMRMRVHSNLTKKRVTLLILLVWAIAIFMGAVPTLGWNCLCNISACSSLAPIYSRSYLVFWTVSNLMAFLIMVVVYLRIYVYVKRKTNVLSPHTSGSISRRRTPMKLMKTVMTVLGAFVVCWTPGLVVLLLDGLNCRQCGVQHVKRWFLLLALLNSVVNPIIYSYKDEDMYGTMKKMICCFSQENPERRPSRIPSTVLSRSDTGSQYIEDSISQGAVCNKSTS

[41] = Drug concentration in rat brain at 10 mg/kg, po after 4 hrs; format: ADME, organism-based; settings: read-out: Ct
[42] = target: Sphingosine 1-phosphate receptor 3 (Homo sapiens, UniProt Q99500); assay: Inhibition of S1P3 (unknown origin)
Sequence of Sphingosine 1-phosphate receptor 3 (Q99500 whole entry): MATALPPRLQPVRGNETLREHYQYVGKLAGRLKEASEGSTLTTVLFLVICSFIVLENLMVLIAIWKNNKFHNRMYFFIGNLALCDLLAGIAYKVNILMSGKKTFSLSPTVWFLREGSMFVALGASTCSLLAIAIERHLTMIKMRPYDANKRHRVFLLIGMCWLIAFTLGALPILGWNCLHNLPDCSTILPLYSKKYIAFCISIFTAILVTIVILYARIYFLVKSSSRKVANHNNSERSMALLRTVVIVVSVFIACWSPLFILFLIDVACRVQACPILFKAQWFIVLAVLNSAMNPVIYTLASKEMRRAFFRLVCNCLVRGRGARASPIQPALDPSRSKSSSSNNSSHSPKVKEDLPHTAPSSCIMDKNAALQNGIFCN

T1 sequence (Q12809 whole entry): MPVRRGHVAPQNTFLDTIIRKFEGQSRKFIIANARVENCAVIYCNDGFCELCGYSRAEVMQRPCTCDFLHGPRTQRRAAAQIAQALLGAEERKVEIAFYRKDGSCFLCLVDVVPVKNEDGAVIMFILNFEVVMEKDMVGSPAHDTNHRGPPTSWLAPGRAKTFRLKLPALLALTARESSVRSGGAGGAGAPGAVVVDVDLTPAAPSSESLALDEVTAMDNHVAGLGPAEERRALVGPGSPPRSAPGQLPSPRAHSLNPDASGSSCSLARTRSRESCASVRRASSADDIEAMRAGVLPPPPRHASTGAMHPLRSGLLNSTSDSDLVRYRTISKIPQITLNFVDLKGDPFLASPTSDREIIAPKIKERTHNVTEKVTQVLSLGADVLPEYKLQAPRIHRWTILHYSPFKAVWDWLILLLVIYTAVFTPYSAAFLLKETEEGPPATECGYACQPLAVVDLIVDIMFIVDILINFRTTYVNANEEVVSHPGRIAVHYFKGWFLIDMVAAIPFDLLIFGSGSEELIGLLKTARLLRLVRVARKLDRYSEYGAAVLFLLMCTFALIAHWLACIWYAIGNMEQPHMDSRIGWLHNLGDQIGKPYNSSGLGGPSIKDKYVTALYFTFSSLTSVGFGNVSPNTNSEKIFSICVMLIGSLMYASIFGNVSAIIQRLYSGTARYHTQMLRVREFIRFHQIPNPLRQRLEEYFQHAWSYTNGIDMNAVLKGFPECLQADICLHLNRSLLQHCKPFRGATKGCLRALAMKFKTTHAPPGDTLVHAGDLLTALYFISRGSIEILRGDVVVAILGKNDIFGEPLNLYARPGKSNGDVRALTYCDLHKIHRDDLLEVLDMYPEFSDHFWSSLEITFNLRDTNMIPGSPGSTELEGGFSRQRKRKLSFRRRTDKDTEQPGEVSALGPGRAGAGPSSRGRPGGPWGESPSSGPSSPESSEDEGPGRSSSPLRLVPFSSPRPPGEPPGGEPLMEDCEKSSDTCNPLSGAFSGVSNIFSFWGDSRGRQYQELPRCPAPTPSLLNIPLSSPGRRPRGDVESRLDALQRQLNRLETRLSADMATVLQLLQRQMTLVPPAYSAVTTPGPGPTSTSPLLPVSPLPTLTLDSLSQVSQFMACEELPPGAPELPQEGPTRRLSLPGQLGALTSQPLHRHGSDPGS
Sequence of Cytochrome P450 2C19 (P33261 whole entry): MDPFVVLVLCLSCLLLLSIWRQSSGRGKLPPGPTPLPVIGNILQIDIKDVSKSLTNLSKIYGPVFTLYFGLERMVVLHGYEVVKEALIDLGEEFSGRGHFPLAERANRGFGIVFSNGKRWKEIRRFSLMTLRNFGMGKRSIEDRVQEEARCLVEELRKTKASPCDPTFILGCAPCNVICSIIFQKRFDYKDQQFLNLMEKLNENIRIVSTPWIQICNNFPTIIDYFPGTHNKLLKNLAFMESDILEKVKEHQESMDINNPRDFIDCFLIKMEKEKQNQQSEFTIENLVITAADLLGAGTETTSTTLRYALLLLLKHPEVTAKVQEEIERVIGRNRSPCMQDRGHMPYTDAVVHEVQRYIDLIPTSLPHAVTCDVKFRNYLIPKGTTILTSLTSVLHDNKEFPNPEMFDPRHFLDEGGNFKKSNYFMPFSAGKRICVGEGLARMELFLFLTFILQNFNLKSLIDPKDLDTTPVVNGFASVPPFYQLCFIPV
Sequence of Sphingosine 1-phosphate receptor 5 (Q9H228 whole entry): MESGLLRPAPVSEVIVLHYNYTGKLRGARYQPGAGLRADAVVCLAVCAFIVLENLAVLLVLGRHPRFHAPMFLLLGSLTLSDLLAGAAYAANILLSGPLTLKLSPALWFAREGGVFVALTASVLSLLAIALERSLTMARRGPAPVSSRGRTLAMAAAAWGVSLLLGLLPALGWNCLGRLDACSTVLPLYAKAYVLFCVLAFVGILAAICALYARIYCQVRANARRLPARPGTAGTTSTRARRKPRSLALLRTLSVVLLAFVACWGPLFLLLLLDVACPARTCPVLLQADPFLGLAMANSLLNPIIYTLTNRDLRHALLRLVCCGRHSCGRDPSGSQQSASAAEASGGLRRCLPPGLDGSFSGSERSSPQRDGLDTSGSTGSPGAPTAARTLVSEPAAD
Sequence of Voltage-gated inwardly rectifying potassium channel KCNH2 (Q12809 whole entry): as the sequence (Q12809 whole entry) above

C[C@@H](c1ccc2ccc(O[C@H]3CC[C@@H](C(F)(F)F)CC3)c(C(F)(F)F)c2c1)N1C2CCC1CC(C(=O)O)C2 (some centres not stated) showed an inhibition at 1 µM [1] of 1.4%, a half-life [2] of 3 h and a Kp at 4 h [3] of 0.2. It also gave a Vd [4] of 2.36 L/kg, a Papp A→B at 2 h [5] of 16.8 ×10⁻⁶ cm/s and a Tmax [6] of 4 h. The bioavailability [7] was 51%, the solubility thermodynamic [8] was 73.2 µg/mL (≈ 135 µM) and the half-life [9] was 4.72 h. The fCmax [10] was 1.5 nM, the Cmax [11] was 89 ng/mL and the clearance [12] was 1.7 mL/min/kg. It also gave an IC50 [13] of 0.001 µM, a Tmax [14] of 1.6 h and a Tmax [15] of 2 h. It also gave a clearance [16] of 29 mL/min/kg, an AUC(0-t) at 24 h [17] of 8840 ng·h/mL and a Tmax [18] of 3 h. For the same compound, the AUC(0-t) at 24 h [19] was 6170 ng·h/mL, the bioavailability [20] was 69% and the Fu [21] was 0.45%. For the same compound, the IC50 [22] was > 10 µM, the concentration at 6 h [23] was 42 ng/mL and the concentration at 6 h [24] was 188 ng/mL. The half-life [25] was 4 h, the IC50 [26] was > 10 µM and the AUC(0-t) at 24 h [27] was 3970 ng·h/mL. The Vd [28] was 2.4 L/kg, the IC50 [29] was > 10 µM and the Cmax [30] was 813 ng/mL. For the same compound, the Fu [31] was 0.599%, the IC50 [32] was > 10 µM and the Vd [33] was 2 L/kg. The AUC(0-t) at 24 h [34] was 369 ng·h/mL, the Tmax [35] was 3 h and the AUC(0-t) at 24 h [36] was 1390 ng·h/mL. The Activity [37] was 48%, the inhibition at 10 µM [38] was 21.3% and the AUC(0-t) at 24 h [39] was 12200 ng·h/mL. The IC50 [40] was > 10 µM, the concentration at 4 h [41] was 97 ng/mL and the IC50 [42] was > 10 µM.
